# Measurements taken from publication PMC12044458 (ACS Omega, 2025).
# What was measured:
# [1] = system: Poly(I:C) Na^+ (RNA, polymer, hypoxanthine (inosine) in place of every G of strand 1 (polyinosinic acid)) G/C; experiment: fluorescence titration of compound emission; conditions: PBS, <1% DMSO, 5 µM compound, per base pair
# [2] = system: Poly(I:C) HMW (RNA, polymer, hypoxanthine (inosine) in place of every G of strand 1 (polyinosinic acid)) G/C; experiment: UV melting; conditions: PBS, 0 mM Mg2+, compound concentration not in material, per base
# [3] = system: Poly(I:C) Na^+ γ (RNA, polymer, hypoxanthine (inosine) in place of every G of strand 1 (polyinosinic acid); gamma-irradiated, possible strand breaks) G/C; experiment: fluorescence titration of compound emission; conditions: PBS, 0 mM Mg2+, <1% DMSO, 5 µM compound, per base pair
# [4] = system: Poly(I:C) Na^+ (RNA, polymer, hypoxanthine (inosine) in place of every G of strand 1 (polyinosinic acid)) G/C; experiment: UV melting; conditions: PBS, 0 mM Mg2+, compound concentration not in material, per base
# human RNase [5] = biological target: T1, human RNase; experiment: microscale thermophoresis (MST); format: binding
# T1 construct: his-tag-labeled human RNase
# [6] = system: Poly(I:C) HMW fluorescein (RNA, polymer, hypoxanthine (inosine) in place of every G of strand 1 (polyinosinic acid)) G/C; experiment: microscale thermophoresis; conditions: PBS-T, PBS-T pH 7.4, 200 nM labelled Poly(I:C)
# [7] = system: Poly(I:C) HMW (RNA, polymer, hypoxanthine (inosine) in place of every G of strand 1 (polyinosinic acid)) G/C; experiment: fluorescence titration of compound emission; conditions: PBS, 0 mM Mg2+, <1% DMSO, 5 µM compound, per base pair
# [8] = system: Poly(I:C) HMW (RNA, polymer, hypoxanthine (inosine) in place of every G of strand 1 (polyinosinic acid)) G/C; experiment: circular dichroism; conditions: PBS, 0 mM Mg2+, 100 µM compound and 100 µM Poly(I:C)
# human RNase [9] = biological target: T1, human RNase; experiment: microscale thermophoresis (MST), two-site fit; Kd2 =[…]; format: binding
# human RNase [10] = biological target: T1, human RNase; experiment: as above; format: binding; remark: listed apart in the source
# [11] = derived from two Tm (66 and 67)
# [12] = 595 nm, 1:1 model, conditional constant, per base
# [13] = 595 nm, 1:2 model, not a 1:1 Ka
# [14] = derived from two Tm (65 and 65)
# [15] = 540 nm, 1:1 model, conditional constant, per base
# [16] = 540 nm, 1:2 model, not a 1:1 Ka
smiles,measurement,setting,value
COc1cccc2c1C(=O)c1c(O)c3c(c(O)c1C2=O)C[C@@](O)(C(=O)CO)C[C@@H]3O[C@H]1C[C@H](N)[C@H](O)[C@H](C)O1 [doxorubicin],Log(K),"[1]; 0 mM Mg2+, 595 nm, 1:1 model, conditional constant, per base",5.03 ± 0.75
same,Log(K),"[1]; 0 mM Mg2+, 595 nm, 1:2 model, not a 1:1 Ka",10.69 ± 1.14
same,melting temperature shift (ΔTm),[2]; [11],-1 °C
same,Log(K),[3]; [12],4.50 ± 0.72
same,Log(K),[3]; [13],10.13 ± 1.23
same,melting temperature shift (ΔTm),[4]; [14],0 °C
same,Kd,human RNase [5],4.8 ± 2 µM
same,Kd,"[6]; ligand stock 0.25 mM, Kd above tested range",251 ± 22 µM
same,Log(K),[7]; [12],5.21 ± 0.75
same,Log(K),[7]; [13],11.23 ± 1.10
CN(C)c1ccc(O)c2c1C[C@H]1C[C@H]3[C@H](N(C)C)C(O)=C(C(N)=O)C(=O)[C@@]3(O)C(O)=C1C2=O [minocycline],melting temperature shift (ΔTm),[2]; [11],-1 °C
same,melting temperature shift (ΔTm),[4]; [14],0 °C
same,binding,[8],yes
same,Kd,human RNase [9],0.509 ± 0.118 µM
CN(C)[C@@H]1C(=O)C(C(N)=O)=C(O)[C@@]2(O)C(=O)C3=C(O)c4c(O)cccc4[C@@](C)(O)[C@H]3C[C@@H]12,Log(K),"[1]; 0 mM Mg2+, 549 nm, 1:1 model, conditional constant, per base",4.64 ± 0.96
same,Log(K),"[1]; 0 mM Mg2+, 549 nm, 1:2 model, not a 1:1 Ka",11.18 ± 0.99
same,Log(K),"[3]; 505 nm, 1:1 model, conditional constant, per base",4.37 ± 0.56
same,Log(K),"[3]; 505 nm, 1:2 model, not a 1:1 Ka",9.57 ± 0.71
same,Kd,[6]; ligand stock 1 mM,448.1 ± 86.4 µM
same,Log(K),"[7]; 549 nm, 1:1 model, conditional constant, per base",5.02 ± 1.05
same,Log(K),"[7]; 549 nm, 1:2 model, not a 1:1 Ka",11.70 ± 1.37
CN(C)[C@@H]1C(O)=C(C(N)=O)C(=O)[C@@]2(O)C(O)=C3C(=O)c4c(O)cccc4[C@@](C)(O)[C@H]3C[C@@H]12 [tetracycline],Kd,human RNase [5],24.5 µM
C[C@H]1c2cccc(O)c2C(O)=C2C(=O)[C@]3(O)C(O)=C(C(N)=O)C(=O)[C@@H](N(C)C)[C@@H]3[C@@H](O)[C@@H]21,Log(K),"[1]; 0 mM Mg2+, 540 nm, 1:2 model, not a 1:1 Ka",9.85 ± 0.99
same,Log(K),"[1]; 10 mM Mg2+ (MgSO4), 537 nm, 1:1 model, conditional constant, per base",5.39 ± 0.96
same,melting temperature shift (ΔTm),[2]; derived from two Tm (67 and 67),0 °C
same,Log(K),[3]; [15],4.14 ± 0.57
same,Log(K),[3]; [16],10.39 ± 1.8
same,melting temperature shift (ΔTm),[4]; derived from two Tm (64 and 65),-1 °C
same,Kd,[6]; ligand stock 1 mM,366.2 ± 74.9 µM
same,Log(K),[7]; [15],4.62 ± 0.3
same,Log(K),[7]; [16],11.34 ± 1.81
C[C@H]1c2cccc(O)c2C(=O)C2=C(O)[C@]3(O)C(=O)C(C(N)=O)=C(O)[C@@H](N(C)C)[C@@H]3[C@@H](O)[C@@H]21 [doxycycline],Kd,human RNase [10],0.149 ± 0.052 µM
